Assay results: US11219213B2, “Fungicidal composition” (ADAMA HUIFENG (JIANGSU) LTD., priority 2016, dated 2022)
Where two headings read alike, the source gives them in different places.

System: wheat leaf rust
Assay: Toxicity test of benzisothiazolinone combined with flutriafol (bioassay)
Format: in vivo
Conditions: for ATI (actual toxicity index): (EC50 of standard/EC50 of test agent)*100, flutriafol as standard; for EC50: median inhibition concentration from control effect, least square method

Row | Compound | ATI (actual toxicity index) | EC50 [µg/mL] | EC50 (Puccinia triticina, read-out: EC50) [µg/mL]
1 | O=c1[nH]sc2ccccc12 [Benzisothiazolinone, benzisothiazolinone] | 167.39 | 40.23 | 
2 | OC(Cn1cncn1)(c1ccc(F)cc1)c1ccccc1F (stereo not shown) [Flutriafol, flutriafol] | 100.00 |  | 67.3
